ChEMBL document CHEMBL4825725, “Synthesis and interaction of terminal unsaturated chemical probes with Mycobacterium tuberculosis CYP124A1” (Bioorg Med Chem, 2021)
Calls of active or inactive are those of the source. The calls are words filed in the database; no cut-off is given here.

Tested on: not listed separately
Experiment: Drug metabolism assessed as Mycobacterium tuberculosis CYP124A1-mediated drug oxidation at 50 to 250 uM in presence of ferridoxin, ferridoxin-NADP+ reductase and NADPH by GC-MS analysis
Format: ADME
Settings: recombinant enzyme, dose 50-250 µM

Row | Structure (SMILES) | Drug metabolism
1 | C=CCOC/C(C)=C/CC/C(C)=C/CO | Metabolite_Notdetected
2 | C=CCOC/C(C)=C/CC/C(C)=C/CC/C(C)=C/CO | Metabolite_Notdetected
3 | C#CCOC/C(C)=C/CC/C(C)=C/CO | Metabolite_Notdetected
4 | C#CCOC/C(C)=C/CC/C(C)=C/CC/C(C)=C/CO | Metabolite_Notdetected

Target: not listed separately
Experiment: Binding affinity to Mycobacterium tuberculosis CYP124A1 by UV-visible spectrophotometric analysis
Settings: read-out: Kd(app)

Row | Structure (SMILES) | Kd
5 | C=CCOC/C(C)=C/CC/C(C)=C/CO | 49.4 µM
6 | CC(C)CCCC(C)CCCC(C)CCCC(C)CC(=O)O (centres undefined) | 0.22 µM
7 | C=CCOC/C(C)=C/CC/C(C)=C/CC/C(C)=C/CO | 2.9 µM
8 | C#CCOC/C(C)=C/CC/C(C)=C/CO | 14.6 µM
9 | C#CCOC/C(C)=C/CC/C(C)=C/CC/C(C)=C/CO | 1.5 µM
10 | CC(C)=CCC/C(C)=C/CC/C(C)=C/CO [FARNESOL] | 1.04 µM

Tested on: Mycobacterium tuberculosis
Experiment: Inhibition of Mycobacterium tuberculosis CYP124A1 at 50 uM incubated for 10 mins in presence of ferridoxin, ferridoxin-NADP+ reductase and NADPH by HPLC analysis
Settings: not given

Row | Structure (SMILES) | inhibition
11 | C=CCOC/C(C)=C/CC/C(C)=C/CO | inactive
12 | C=CCOC/C(C)=C/CC/C(C)=C/CC/C(C)=C/CO | inactive
13 | C#CCOC/C(C)=C/CC/C(C)=C/CO | inactive
14 | C#CCOC/C(C)=C/CC/C(C)=C/CC/C(C)=C/CO | inactive
